From article PMC6572064, “Discovery of 2-(1-(3-(4-Chloroxyphenyl)-3-oxo- propyl)pyrrolidine-3-yl)-1H-benzo[d]imidazole-4-carboxamide: A Potent Poly(ADP-ribose) Polymerase (PARP) Inhibitor for Treatment of Cancer” (Molecules, 2019)
Like-named read-outs stand apart in the source and are kept apart here.

Legend:
PARP-1 = molecular target: T1, PARP-1 (Homo sapiens, UniProt P09874); experiment: PARP-1 inhibition assay (PARP-1 Chemiluminescent Assay Kit, BPS Bioscience); assay type: biochemical; details: 10 nM compound
T1 construct: purchased BPS Bioscience 80569
Method: (§1) The PARP-1 and PARP-2 inhibition assays were performed in outsourcing, by a CRO company, Shanghai Medicilon Inc. (Shanghai, China). […] Briefly, PARP-1 or PARP-2 biotinylated substrate was incubated with compounds or solvent control at varying concentrations and an assay buffer containing the PARP-1 or PARP-2 enzyme.

PARP-2 = molecular target: T2, PARP-2 (Homo sapiens, UniProt Q9UGN5); experiment: PARP-2 inhibition assay (PARP-2 Chemiluminescent Assay Kit, BPS Bioscience); assay type: biochemical; details: 10 nM compound
T2 construct: purchased BPS Bioscience 80552
Method: as §1

[1] = test system: MDA-MB-436 (a BRCA-1-mutated breast cancer cell line); experiment: Cell proliferation assay, three-day, CellTiter-Glo, MDA-MB-436; assay type: cell-based; details: for inhibition at 0.00508 µM / inhibition at 0.0152 µM / inhibition at 0.0457 µM / inhibition at 0.41 µM / inhibition at 1.23 µM / inhibition at 3.7 µM / inhibition at 11.11 µM / inhibition at 33.33 µM / inhibition at 100 µM / IC50: Homo sapiens; for inhibition at 0.00508 µM: MDA-MB-436, MDA-MB-436, Conc. 0.00508 uM; for inhibition at 0.0152 µM: MDA-MB-436, MDA-MB-436, Conc. 0.0152 uM; for inhibition at 0.0457 µM: MDA-MB-436, MDA-MB-436, Conc. 0.0457 uM; for inhibition at 0.41 µM: MDA-MB-436, MDA-MB-436, Conc. 0.41 uM; for inhibition at 1.23 µM: MDA-MB-436, MDA-MB-436, Conc. 1.23 uM; for inhibition at 3.7 µM: MDA-MB-436, MDA-MB-436, Conc. 3.70 uM; for inhibition at 11.11 µM: MDA-MB-436, MDA-MB-436, Conc. 11.11 uM; for inhibition at 33.33 µM: MDA-MB-436, MDA-MB-436, Conc. 33.33 uM; for inhibition at 100 µM: MDA-MB-436, MDA-MB-436, Conc. 100.00 uM
Method: (§2) A three-day assay was conducted. A cell suspension was prepared. Cell density was counted by an automated cell counter and then diluted to the required density, according to seeding density. 50 μL cells were seeded into 384-well plate in growth medium according to the plate map. The cells were incubated at 37 °C, 5% CO2 overnight.
(§3) 200× compound solution in DMSO was prepared and diluted with growth medium to 26× final concentration by addition of 26 μL 200× compounds to 174 μL growth medium. Then 2 μL of diluted compound solution was added to cells and the cell was incubated at 37 °C, 5% CO2 for 72 h.
(§4) The assay plate was equilibrated to room temperature prior to measurement. 15 μL of CellTiter-Glo Reagent was added into each well and the contents were mixed for 2 min on an orbital shaker to induce cell lysis. The cells were incubated at room temperature for 60 min to stabilize luminescent signal. Luminescence was recorded on the Envision system.

[2] = test system: CAPAN-1 (a BRCA-2-mutated pancreatic cancer cell line); experiment: Cell proliferation assay, three-day, CellTiter-Glo, CAPAN-1; assay type: cell-based; details: for IC50 / inhibition at 0.00508 µM / inhibition at 0.0152 µM / inhibition at 0.0457 µM / inhibition at […] / inhibition at 0.41 µM / inhibition at 1.23 µM / inhibition at 3.7 µM / inhibition at 11.11 µM / inhibition at 33.33 µM / inhibition at 100 µM: Homo sapiens; for inhibition at 0.00508 µM: CAPAN-1, 0.00508 uM; for inhibition at 0.0152 µM: CAPAN-1, 0.0152 uM; for inhibition at 0.0457 µM: CAPAN-1, 0.0457 uM; for inhibition at […]: CAPAN-1, 0.14 uM; for inhibition at 0.41 µM: CAPAN-1, 0.41 uM; for inhibition at 1.23 µM: CAPAN-1, 1.23 uM; for inhibition at 3.7 µM: CAPAN-1, 3.70 uM; for inhibition at 11.11 µM: CAPAN-1, 11.11 uM; for inhibition at 33.33 µM: CAPAN-1, 33.33 uM; for inhibition at 100 µM: CAPAN-1, 100.00 uM
Method: as §2, §3, §4

[3] = supplement sheet, read-out: 10 nM inhibition% PAPR-1
[4] = read-out: PARP-1 Inhibition % (10 nM)
[5] = supplement sheet, read-out: 10 nM inhibition% PAPR-2
[6] = read-out: PARP-2 Inhibition % (10 nM)
[7] = MDA-MB-436, 72 h, CellTiter-Glo, read-out: MDA-MB-436 IC50
[8] = CAPAN-1, 72 h, CellTiter-Glo, read-out: CAPAN-1 IC50

T2 sequence (Q9UGN5 whole entry): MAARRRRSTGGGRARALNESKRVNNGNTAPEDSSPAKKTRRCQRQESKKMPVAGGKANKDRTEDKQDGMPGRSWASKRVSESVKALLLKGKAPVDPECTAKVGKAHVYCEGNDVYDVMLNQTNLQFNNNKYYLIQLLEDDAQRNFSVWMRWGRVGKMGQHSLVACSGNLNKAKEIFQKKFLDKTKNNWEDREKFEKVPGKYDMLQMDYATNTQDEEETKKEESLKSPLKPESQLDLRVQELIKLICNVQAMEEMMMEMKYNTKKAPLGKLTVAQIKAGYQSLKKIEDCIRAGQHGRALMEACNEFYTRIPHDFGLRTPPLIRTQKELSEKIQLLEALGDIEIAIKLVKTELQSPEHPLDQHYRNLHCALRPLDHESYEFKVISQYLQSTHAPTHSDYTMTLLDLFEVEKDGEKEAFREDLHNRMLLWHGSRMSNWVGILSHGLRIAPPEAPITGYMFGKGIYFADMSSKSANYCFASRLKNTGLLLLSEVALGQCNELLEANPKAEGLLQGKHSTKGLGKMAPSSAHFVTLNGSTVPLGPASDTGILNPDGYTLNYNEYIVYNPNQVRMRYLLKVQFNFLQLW
T1 sequence (P09874 whole entry): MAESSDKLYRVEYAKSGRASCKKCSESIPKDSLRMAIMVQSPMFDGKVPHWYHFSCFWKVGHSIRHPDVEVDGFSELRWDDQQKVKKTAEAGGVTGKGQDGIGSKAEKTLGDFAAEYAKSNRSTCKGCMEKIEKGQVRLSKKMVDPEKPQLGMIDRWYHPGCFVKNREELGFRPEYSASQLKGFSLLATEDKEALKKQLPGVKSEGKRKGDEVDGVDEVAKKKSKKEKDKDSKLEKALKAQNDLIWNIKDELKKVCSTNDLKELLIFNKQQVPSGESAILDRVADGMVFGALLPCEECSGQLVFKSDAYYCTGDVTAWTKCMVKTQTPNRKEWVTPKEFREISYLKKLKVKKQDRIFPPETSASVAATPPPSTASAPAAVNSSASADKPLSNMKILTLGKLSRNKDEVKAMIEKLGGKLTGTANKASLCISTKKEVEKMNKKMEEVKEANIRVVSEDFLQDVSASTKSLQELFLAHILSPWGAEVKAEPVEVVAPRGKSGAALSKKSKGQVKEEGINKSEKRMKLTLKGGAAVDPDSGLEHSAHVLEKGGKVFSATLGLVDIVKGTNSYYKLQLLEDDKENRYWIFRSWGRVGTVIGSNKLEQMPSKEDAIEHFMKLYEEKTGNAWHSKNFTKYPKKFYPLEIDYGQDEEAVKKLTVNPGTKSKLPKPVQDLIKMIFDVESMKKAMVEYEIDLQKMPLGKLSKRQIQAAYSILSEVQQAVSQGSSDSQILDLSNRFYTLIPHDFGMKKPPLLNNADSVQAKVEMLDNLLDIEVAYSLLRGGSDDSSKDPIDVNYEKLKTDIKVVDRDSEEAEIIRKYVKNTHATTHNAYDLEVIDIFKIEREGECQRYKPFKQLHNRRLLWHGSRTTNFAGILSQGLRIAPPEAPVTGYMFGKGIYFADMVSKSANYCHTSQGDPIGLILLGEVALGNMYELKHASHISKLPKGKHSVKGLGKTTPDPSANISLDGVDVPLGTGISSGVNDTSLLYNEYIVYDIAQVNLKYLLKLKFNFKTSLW

NC(=O)c1cccc2[nH]c(C3CCN(CC(=O)c4ccccc4)C3)nc12 (stereo not drawn) [Compound 5cd, 2-(1-(2-Oxo-2-phenylethyl)pyrrolidin-3-yl)-1H-benzo[d]imidazole-4-carboxa-mide]
inhibition at 0.01 µM (PARP-1; [3]): -1.05%
inhibition at 0.01 µM (PARP-1; [4]): -1.1%
inhibition at 0.01 µM (PARP-2; [5]): 7.18%
inhibition at 0.01 µM (PARP-2; [6]): 7.2%
inhibition at 0.00508 µM ([1]; replicate 1, read-out: Inh % 1): -0.654%
inhibition at 0.00508 µM ([1]; replicate 2, read-out: Inh % 2): -7.1%
inhibition at 0.0152 µM ([1]; replicate 1, read-out: Inh % 1): -3.7%
inhibition at 0.0152 µM ([1]; replicate 2, read-out: Inh % 2): -6.1%
inhibition at 0.0457 µM ([1]; replicate 1, read-out: Inh % 1): -6.8%
inhibition at 0.0457 µM ([1]; replicate 2, read-out: Inh % 2): -12.7%
inhibition at 0.41 µM ([1]; replicate 1, read-out: Inh % 1): -13.5%
inhibition at 0.41 µM ([1]; replicate 2, read-out: Inh % 2): -13.2%
inhibition at 1.23 µM ([1]; replicate 1, read-out: Inh % 1): -16.5%
inhibition at 1.23 µM ([1]; replicate 2, read-out: Inh % 2): -19%
inhibition at 3.7 µM ([1]; replicate 1, read-out: Inh % 1): -10.3%
inhibition at 3.7 µM ([1]; replicate 2, read-out: Inh % 2): -11.7%
inhibition at 11.11 µM ([1]; replicate 1, read-out: Inh % 1): 0.3%
inhibition at 11.11 µM ([1]; replicate 2, read-out: Inh % 2): -11%
inhibition at 33.33 µM ([1]; replicate 1, read-out: Inh % 1): 35.4%
inhibition at 33.33 µM ([1]; replicate 2, read-out: Inh % 2): 16.5%
inhibition at 100 µM ([1]; replicate 1, read-out: Inh % 1): 68.9%
inhibition at 100 µM ([1]; replicate 2, read-out: Inh % 2): 66.2%
IC50 [1, 7]: 55 µM
IC50 ([1]; MDA-MB-436, 72 h, supplement Summary sheet, read-out: IC50): 55 µM
IC50 ([1]; MDA-MB-436, curve fit list, no unit in the cell, concentration in uM, read-out: IC50): 55 µM
LogIC50 ([1]; MDA-MB-436, curve fit on Log (uM) concentrations): 1.74
Bottom ([1]; MDA-MB-436, curve fit parameter (Inh %)): -10.87
Top ([1]; MDA-MB-436, curve fit parameter (Inh %), '= 100.0' is a constrained value): = 100.0
LogIC50 ([2]; CAPAN-1, curve-fit output, Log (uM)): 1.917
IC50 [2, 8]: 82.5 µM
inhibition at 0.00508 µM ([2]; replicate 1, read-out: Inh % 1): 4.6%
inhibition at 0.00508 µM ([2]; replicate 2, read-out: Inh % 2): -0.8%
inhibition at 0.0152 µM ([2]; replicate 1, read-out: Inh % 1): 2.6%
inhibition at 0.0152 µM ([2]; replicate 2, read-out: Inh % 2): -1.6%
inhibition at 0.0457 µM ([2]; replicate 1, read-out: Inh % 1): 0.6%
inhibition at 0.0457 µM ([2]; replicate 2, read-out: Inh % 2): -4.7%
inhibition at […] ([2]; replicate 1, read-out: Inh % 1): 3.7%
inhibition at […] ([2]; replicate 2, read-out: Inh % 2): -1.1%
inhibition at 0.41 µM ([2]; replicate 1, read-out: Inh % 1): 13.1%
inhibition at 0.41 µM ([2]; replicate 2, read-out: Inh % 2): 3.2%
inhibition at 1.23 µM ([2]; replicate 1, read-out: Inh % 1): 2.1%
inhibition at 1.23 µM ([2]; replicate 2, read-out: Inh % 2): 3.2%
inhibition at 3.7 µM ([2]; replicate 1, read-out: Inh % 1): 4%
inhibition at 3.7 µM ([2]; replicate 2, read-out: Inh % 2): 4.4%
inhibition at 11.11 µM ([2]; replicate 1, read-out: Inh % 1): 1%
inhibition at 11.11 µM ([2]; replicate 2, read-out: Inh % 2): 4.4%
inhibition at 33.33 µM ([2]; replicate 1, read-out: Inh % 1): 17.9%
inhibition at 33.33 µM ([2]; replicate 2, read-out: Inh % 2): 8.7%
inhibition at 100 µM ([2]; replicate 1, read-out: Inh % 1): 68%
inhibition at 100 µM ([2]; replicate 2, read-out: Inh % 2): 55.2%
IC50 ([2]; CAPAN-1, 72 h, supplement Summary sheet, read-out: IC50): 82.5 µM
IC50 ([2]; CAPAN-1, curve-fit output, concentrations in uM, read-out: IC50): 82.5 µM

NC(=O)c1cccc2[nH]c(C3CCN(CCCN4C(=O)c5ccccc5C4=O)C3)nc12 (stereo not drawn) [Compound 5ce, 2-(1-(3-(1,3-Dioxoisoindolin-2-yl)propyl)pyrrolidin-3-yl)-1H-benzo[d]imidazole-4-carboxamide]
inhibition at 0.01 µM (PARP-1; [3]): 22%
inhibition at 0.01 µM (PARP-1; [4]): 22%
inhibition at 0.01 µM (PARP-2; [5]): 74.6%
inhibition at 0.01 µM (PARP-2; [6]): 74.5%
inhibition at 0.00508 µM ([1]; replicate 1, read-out: Inh % 1): 20.1%
inhibition at 0.00508 µM ([1]; replicate 2, read-out: Inh % 2): 0.9%
inhibition at 0.0152 µM ([1]; replicate 1, read-out: Inh % 1): -2.8%
inhibition at 0.0152 µM ([1]; replicate 2, read-out: Inh % 2): -5%
inhibition at 0.0457 µM ([1]; replicate 1, read-out: Inh % 1): -11.2%
inhibition at 0.0457 µM ([1]; replicate 2, read-out: Inh % 2): -11.9%
inhibition at 0.41 µM ([1]; replicate 1, read-out: Inh % 1): -6.1%
inhibition at 0.41 µM ([1]; replicate 2, read-out: Inh % 2): -15.6%
inhibition at 1.23 µM ([1]; replicate 1, read-out: Inh % 1): -8.9%
inhibition at 1.23 µM ([1]; replicate 2, read-out: Inh % 2): -17.5%
inhibition at 3.7 µM ([1]; replicate 1, read-out: Inh % 1): -1.2%
inhibition at 3.7 µM ([1]; replicate 2, read-out: Inh % 2): -9.2%
inhibition at 11.11 µM ([1]; replicate 1, read-out: Inh % 1): 15.7%
inhibition at 11.11 µM ([1]; replicate 2, read-out: Inh % 2): -2.9%
inhibition at 33.33 µM ([1]; replicate 1, read-out: Inh % 1): -10.9%
inhibition at 33.33 µM ([1]; replicate 2, read-out: Inh % 2): -11%
inhibition at 100 µM ([1]; replicate 1, read-out: Inh % 1): 0.113%
inhibition at 100 µM ([1]; replicate 2, read-out: Inh % 2): -9.4%
IC50 [1, 7]: > 100 µM
IC50 [2, 8]: > 100 µM
inhibition at 0.00508 µM ([2]; replicate 1, read-out: Inh % 1): -4.4%
inhibition at 0.00508 µM ([2]; replicate 2, read-out: Inh % 2): 0.4%
inhibition at 0.0152 µM ([2]; replicate 1, read-out: Inh % 1): -2.3%
inhibition at 0.0152 µM ([2]; replicate 2, read-out: Inh % 2): -0.9%
inhibition at 0.0457 µM ([2]; replicate 1, read-out: Inh % 1): 1.8%
inhibition at 0.0457 µM ([2]; replicate 2, read-out: Inh % 2): 10%
inhibition at […] ([2]; replicate 1, read-out: Inh % 1): -0.6%
inhibition at […] ([2]; replicate 2, read-out: Inh % 2): -2.2%
inhibition at 0.41 µM ([2]; replicate 1, read-out: Inh % 1): 12.8%
inhibition at 0.41 µM ([2]; replicate 2, read-out: Inh % 2): 3.7%
inhibition at 1.23 µM ([2]; replicate 1, read-out: Inh % 1): 7.5%
inhibition at 1.23 µM ([2]; replicate 2, read-out: Inh % 2): 3.7%
inhibition at 3.7 µM ([2]; replicate 1, read-out: Inh % 1): 6.8%
inhibition at 3.7 µM ([2]; replicate 2, read-out: Inh % 2): 9.9%
inhibition at 11.11 µM ([2]; replicate 1, read-out: Inh % 1): 13.7%
inhibition at 11.11 µM ([2]; replicate 2, read-out: Inh % 2): -0.541%
inhibition at 33.33 µM ([2]; replicate 1, read-out: Inh % 1): 11%
inhibition at 33.33 µM ([2]; replicate 2, read-out: Inh % 2): 3.9%
inhibition at 100 µM ([2]; replicate 1, read-out: Inh % 1): 6.1%
inhibition at 100 µM ([2]; replicate 2, read-out: Inh % 2): 4.5%
